Measurements published in BindingDB's records for patent WO2025049746 (Eikon Therapeutics, 2025).

What was measured:
[1] = target: Bifunctional 3'-5' exonuclease/ATP-dependent helicase WRN (Homo sapiens, UniProt Q14191); test: ADP-Glo Kinase Assay
Protocol: ATPase activity was measured using the ADP-Glo Kinase Assay following the manufacturers recommended protocol.

[2] = target: T1, Bifunctional 3'-5' exonuclease/ATP-dependent helicase WRN [480-1251] (UniProt Q14191); test: Biochemical Activity Assays
T1 construct: 480-1251
T1 sequence (Q14191 480-1251): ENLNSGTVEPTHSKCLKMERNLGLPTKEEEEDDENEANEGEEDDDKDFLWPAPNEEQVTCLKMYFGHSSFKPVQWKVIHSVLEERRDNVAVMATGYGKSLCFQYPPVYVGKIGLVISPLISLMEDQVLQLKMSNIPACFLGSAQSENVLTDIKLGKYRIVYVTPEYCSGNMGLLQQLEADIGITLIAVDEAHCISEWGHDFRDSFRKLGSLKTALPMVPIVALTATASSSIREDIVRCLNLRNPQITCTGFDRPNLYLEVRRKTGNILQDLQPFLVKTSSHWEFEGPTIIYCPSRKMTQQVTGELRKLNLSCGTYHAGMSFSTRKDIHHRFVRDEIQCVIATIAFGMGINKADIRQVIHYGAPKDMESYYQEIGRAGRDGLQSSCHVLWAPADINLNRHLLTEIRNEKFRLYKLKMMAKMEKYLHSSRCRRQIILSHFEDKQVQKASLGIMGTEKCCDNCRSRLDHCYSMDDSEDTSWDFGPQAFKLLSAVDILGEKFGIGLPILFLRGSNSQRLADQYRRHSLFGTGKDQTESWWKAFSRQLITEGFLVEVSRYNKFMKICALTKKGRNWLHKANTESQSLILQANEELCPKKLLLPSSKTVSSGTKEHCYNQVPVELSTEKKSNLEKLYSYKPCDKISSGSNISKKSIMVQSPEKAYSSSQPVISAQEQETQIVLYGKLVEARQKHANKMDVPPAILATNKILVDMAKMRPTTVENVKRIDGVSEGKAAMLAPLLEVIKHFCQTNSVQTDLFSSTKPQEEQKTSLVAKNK

Chain of Bifunctional 3'-5' exonuclease/ATP-dependent helicase WRN (Q14191 whole entry): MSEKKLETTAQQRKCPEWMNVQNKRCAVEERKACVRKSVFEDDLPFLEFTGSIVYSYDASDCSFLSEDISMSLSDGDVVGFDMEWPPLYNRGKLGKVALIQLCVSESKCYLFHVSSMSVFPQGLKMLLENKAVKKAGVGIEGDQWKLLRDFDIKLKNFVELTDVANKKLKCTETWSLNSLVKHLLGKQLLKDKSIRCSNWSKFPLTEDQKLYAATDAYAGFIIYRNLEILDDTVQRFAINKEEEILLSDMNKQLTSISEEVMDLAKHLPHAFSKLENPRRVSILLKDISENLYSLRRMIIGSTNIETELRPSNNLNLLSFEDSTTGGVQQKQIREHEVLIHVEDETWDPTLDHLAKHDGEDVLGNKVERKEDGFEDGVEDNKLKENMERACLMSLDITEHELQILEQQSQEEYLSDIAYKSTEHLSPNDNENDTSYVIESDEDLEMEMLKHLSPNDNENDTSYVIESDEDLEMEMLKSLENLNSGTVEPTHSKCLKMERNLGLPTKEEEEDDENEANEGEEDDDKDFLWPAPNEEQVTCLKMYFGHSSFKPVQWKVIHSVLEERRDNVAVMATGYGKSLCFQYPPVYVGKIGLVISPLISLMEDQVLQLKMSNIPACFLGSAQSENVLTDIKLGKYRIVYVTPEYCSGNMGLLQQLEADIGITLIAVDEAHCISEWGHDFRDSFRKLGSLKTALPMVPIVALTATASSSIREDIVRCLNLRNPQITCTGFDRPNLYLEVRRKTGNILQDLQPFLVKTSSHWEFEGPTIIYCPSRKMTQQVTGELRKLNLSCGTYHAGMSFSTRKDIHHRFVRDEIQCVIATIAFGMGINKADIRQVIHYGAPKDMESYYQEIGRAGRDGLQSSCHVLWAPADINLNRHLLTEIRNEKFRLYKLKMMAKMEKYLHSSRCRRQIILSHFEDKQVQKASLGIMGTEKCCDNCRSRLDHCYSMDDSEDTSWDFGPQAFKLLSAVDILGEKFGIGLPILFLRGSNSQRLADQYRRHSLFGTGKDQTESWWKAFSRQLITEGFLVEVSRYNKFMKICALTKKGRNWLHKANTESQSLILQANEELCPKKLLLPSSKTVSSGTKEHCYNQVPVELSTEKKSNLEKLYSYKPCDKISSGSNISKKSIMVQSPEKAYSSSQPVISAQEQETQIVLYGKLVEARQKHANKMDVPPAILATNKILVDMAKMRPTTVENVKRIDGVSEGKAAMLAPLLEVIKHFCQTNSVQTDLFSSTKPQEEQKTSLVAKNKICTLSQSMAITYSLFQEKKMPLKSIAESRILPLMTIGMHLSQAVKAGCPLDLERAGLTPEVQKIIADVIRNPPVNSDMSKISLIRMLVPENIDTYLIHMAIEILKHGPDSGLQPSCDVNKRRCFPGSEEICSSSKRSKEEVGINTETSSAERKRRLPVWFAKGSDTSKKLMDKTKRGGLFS

| SMILES | IC50 [1] | IC50 [2] |
| --- | --- | --- |
| CCc1c(N2CCN(C(=O)c3ncnc(C)c3O)CC2)c(=O)n2nc(-c3cccc4c3OCO4)nc2n1CC(=O)Nc1c(Cl)cc(C(F)(F)F)c2c1CC2 [WO2025049746, Example 385] | 96 nM | 87 nM |
| CCc1c(N2CCN(C(=O)c3ncnc(C)c3O)CC2)c(=O)n2nc(-c3cccc4c3COC4)nc2n1CC(=O)Nc1c(Cl)cc(C(F)(F)F)c2c1CC2 [WO2025049746, Example 386] | 89 nM | 60 nM |
| CCc1c(N2CCN(C(=O)c3ncnc(C)c3O)CC2)c(=O)n2nc(N(C)C)nc2n1CC(=O)Nc1c(Cl)cc(C(F)(F)F)c2c1CC2 [WO2025049746, Example 387] | 41 nM | 32 nM |
| CCc1c(N2CCN(C(=O)c3ncnc(C)c3O)CC2)c(=O)n2nc(-c3cccc4c3OCCO4)nc2n1CC(=O)Nc1c(Cl)cc(C(F)(F)F)c2c1CC2 [WO2025049746, Example 388] | 87 nM | 58 nM |
| CCc1c(N2CCN(C(=O)c3ncnc(C)c3O)CC2)c(=O)n2nc(-c3cccc4c3CCOC4)nc2n1CC(=O)Nc1c(Cl)cc(C(F)(F)F)c2c1CC2 [WO2025049746, Example 389] | 1170 nM | 137 nM |
| CCc1c(N2CCN(C(=O)c3ncnc(C)c3O)CC2)c(=O)n2nc(-c3cccc4c3COCC4)nc2n1CC(=O)Nc1c(Cl)cc(C(F)(F)F)c2c1CC2 [WO2025049746, Example 390] | 84 nM | 52 nM |
| CCc1c(N2CCN(C(=O)c3ncnc(C)c3O)CC2)c(=O)n2nc(N3CCC3)nc2n1CC(=O)Nc1c(Cl)cc(C(F)(F)F)c2c1CC2 [WO2025049746, Example 391] | 93 nM | 82 nM |
| CCc1c(N2CCN(C(=O)c3ncnc(C)c3O)CC2)c(=O)n2nc(N(C)C)nc2n1CC(=O)Nc1ccc(SC(F)(F)F)cc1 [WO2025049746, Example 392] | 468 nM | 396 nM |
| CCc1c(N2CCN(C(=O)c3ncnc(C)c3O)CC2)c(=O)n2nc(-c3ccc4c(c3)CCOC4)nc2n1CC(=O)Nc1ccc(SC(F)(F)F)cc1 [WO2025049746, Example 393] | 506 nM | 419 nM |
| CCc1c(N2CCN(C(=O)c3ncnc(C)c3O)CC2)c(=O)n2nc(-c3cccc4c3OCO4)nc2n1CC(=O)Nc1ccc(SC(F)(F)F)cc1 [WO2025049746, Example 394] | 760 nM | 593 nM |
| CCc1c(N2CCN(C(=O)c3ncnc(C)c3O)CC2)c(=O)n2nc(-c3ccc4c(c3)CCOC4)nc2n1CC(=O)Nc1ccc(SC(F)(F)F)cc1Cl [WO2025049746, Example 395] | 43 nM | 35 nM |
| CCc1c(N2CCN(C(=O)c3ncnc(C)c3O)CC2)c(=O)n2nc(N(C)C)nc2n1CC(=O)Nc1ccc(SC(F)(F)F)cc1Cl [WO2025049746, Example 396] | 42 nM | 36 nM |
| CCc1c(N2CCN(C(=O)c3ncnc(C)c3O)CC2)c(=O)n2nc(-c3ccc4c(c3)CCOC4)nc2n1CC(=O)Nc1ccc(OC(F)(F)Cl)cc1 [WO2025049746, Example 398] | 43 nM | 34 nM |
| CCc1c(N2CCN(C(=O)c3ncnc(C)c3O)CC2)c(=O)n2nc(-c3cccc4c3OCCO4)nc2n1CC(=O)Nc1ccc(SC(F)(F)F)cc1Cl [WO2025049746, Example 399] | 142 nM | 115 nM |
| CCc1c(N2CCN(C(=O)c3ncnc(C)c3O)CC2)c(=O)n2nc(-c3cccc4c3OCO4)nc2n1CC(=O)Nc1ccc(SC(F)(F)F)cc1Cl [WO2025049746, Example 400] | 130 nM | 103 nM |
| CCc1c(N2CCN(C(=O)c3ncnc(C)c3O)CC2)c(=O)n2nc(N(C)C)nc2n1C(F)(F)C(=O)Nc1ccc(C(F)(F)F)cc1Cl [WO2025049746, Example 401] | 59 nM | 45 nM |

| SMILES | IC50 [1] | IC50 [2] |
| --- | --- | --- |
| CCc1c(N2CCN(C(=O)c3ncnc(C)c3O)CC2)c(=O)n2nc(-c3ccc4c(c3)CCOC4)nc2n1C(F)(F)C(=O)Nc1ccc(C(F)(F)F)cc1Cl [WO2025049746, Example 402] | 32 nM | 26 nM |
| CCc1c(N2CCN(C(=O)c3ncnc(C)c3O)CC2)c(=O)n2nc(-c3ccc4c(c3)CCO4)nc2n1CC(=O)Nc1ccc(Cl)c(OC(F)F)c1Cl [WO2025049746, Example 405] | 44 nM | 35 nM |
| CCc1c(N2CCN(C(=O)c3ncnc(C)c3O)CC2)c(=O)n2nc(-c3ccc4c(c3)CCOC4)nc2n1CC(=O)Nc1ccc(Cl)c(OC(F)F)c1Cl [WO2025049746, Example 406] | 46 nM | 36 nM |
| CCc1c(N2CCN(C(=O)c3ncnc(C)c3O)CC2)c(=O)n2nc(-c3ccc4c(c3)COC4)nc2n1CC(=O)Nc1ccc(Cl)c(OC(F)F)c1Cl [WO2025049746, Example 407] | 30 nM | 25 nM |
| CCc1c(N2CCN(C(=O)c3cc(C(C)C)c(O)cc3O)CC2)c(=O)n2nc(-c3ccc4c(c3)COC4)nc2n1CC(=O)Nc1ccc(C(F)(F)F)cc1Cl [WO2025049746, Example 408] | 1260 nM | 1200 nM |
| CCc1c(N2CCN(C(=O)c3ncnc(C)c3O)CC2)c(=O)n2nc(-c3ccc4c(c3)COC4)nc2n1CC(=O)Nc1ccc(SC(F)(F)F)cc1Cl [WO2025049746, Example 409] | 31 nM | 25 nM |
| CCc1c(N2CCN(C(=O)c3ncnc(C)c3O)CC2)c(=O)n2nc(-c3ccc4c(c3)CCO4)nc2n1CC(=O)Nc1ccc(SC(F)(F)F)cc1Cl [WO2025049746, Example 410] | 41 nM | 32 nM |
| CCc1c(N2CCN(C(=O)c3ncnc(C)c3O)CC2)c(=O)n2nc(-c3cccc4c3OCCO4)nc2n1CC(=O)Nc1ccc(SC(F)(F)F)cc1 [WO2025049746, Example 411] | 420 nM | 232 nM |
| CCc1c(N2CCN(C(=O)c3ncnc(N4CC(F)(F)C4)c3O)CC2)c(=O)n2nc(-c3ccc4c(c3)COC4)nc2n1CC(=O)Nc1ccc(C(F)(F)F)cc1Cl [WO2025049746, Example 412] | 37 nM | 29 nM |
| CCc1c(N2CCN(C(=O)c3cc(C)c(O)cc3O)CC2)c(=O)n2nc(-c3ccc4c(c3)COC4)nc2n1CC(=O)Nc1ccc(C(F)(F)F)cc1Cl [WO2025049746, Example 413] | 386 nM | 303 nM |
| CCc1c(N2CCN(C(=O)c3ncnc(C)c3O)CC2)c(=O)n2nc(-c3ccc4c(c3)COC4)nc2n1CC(=O)Nc1c(Cl)cc(C(F)(F)F)cc1OC1CC1 [WO2025049746, Example 414] | 2370 nM | 1130 nM |
| CCc1c(N2CCN(C(=O)c3ncnc(N4CC(OC)C4)c3O)CC2)c(=O)n2nc(-c3ccc4c(c3)COC4)nc2n1CC(=O)Nc1ccc(C(F)(F)F)cc1Cl [WO2025049746, Example 415] | 3 nM | 1 nM |
| CCc1c(N2CCN(C(=O)c3ncnc(C)c3O)CC2)c(=O)n2nc(-c3ccc4c(c3)COC4)nc2n1CC(=O)Nc1ccc(C(F)(F)F)cc1OC1CC1 [WO2025049746, Example 416] | 387 nM | 159 nM |
| CCc1c(N2CCN(C(=O)c3nc4c(cc3O)CCC4)CC2)c(=O)n2nc(-c3ccc4c(c3)COC4)nc2n1CC(=O)Nc1ccc(C(F)(F)F)cc1Cl [WO2025049746, Example 417] | 106 nM | 84 nM |
| CCc1c(N2CCN(C(=O)c3ncnc(C)c3O)CC2)c(=O)n2nc(-c3ccc4c(c3)COC4)nc2n1CC(=O)Nc1cc(C2CC2)c(C(F)(F)F)cc1Cl [WO2025049746, Example 418] | 66 nM | 57 nM |
